Measured values as given in US5434174A, “Isoxazole derivatives for the treatment of irritable bowel syndrome” (priority 1993, dated 1995).
pIC50: −log10 of the molar value. Where a name gives a salt, the structure may show the parent alone. Read-outs that look alike come from different tables or passages of the source.

What was measured:
[1] = test system: rat colon (carbachol-induced contraction); assay: Reversal of carbachol-induced hypertone (contraction of rat colon strips in vitro); parameters: species or system rat (male Sprague-Dawley); conditions: colonic smooth muscle in vitro, read-out: Blockade of carbachol-induced contraction of rat colon (IC50)
Method: Reversal of Carbachol-Induced Hypertone
Male Spraque-Dawley rats weighing 300-350 gm were starved for 24 hours. The rats were brought to the lab and decapitated and colons were removed immediately. Fecal content was washed and longitudinal strips 4 cm long were placed in organ baths under 1 gm tension using Grass FT03 transducers. Tissues were allowed to equilibrate and were gassed with 95% oxygen and 5% carbon dioxide. The tissues were then contracted with carbachol to produce a tonic response. Then the drug solutions were added to see relaxation. Percent relaxation was calculated from the pre-treatment control period. For many compounds more than one concentration of the drug was tested. In these situations an IC50 was calculated, which is the dose which inhibited carbachol induced response by 50%.
(§1) Table II summarizes the effect of typical formula I compounds on muscarinic (M1) receptors.

[2] = target: T1, muscarinic (M1) receptors (Rattus norvegicus, UniProt P08482); assay: In vitro [3H]-pirenzepine binding (muscarinic M1, rat cerebral cortical membranes); parameters: species or system rat (male Sprague-Dawley); conditions: for IC50: inhibition of 3H-pirenzepine binding, rat cerebral cortical membranes, read-out: Radioligand binding data (IC50, nM) M1
T1 construct: Cerebral cortical membranes were prepared by differential centrifugation; from tissue; host or cells: rat cerebral cortex membranes
T1 sequence (P08482 1-460): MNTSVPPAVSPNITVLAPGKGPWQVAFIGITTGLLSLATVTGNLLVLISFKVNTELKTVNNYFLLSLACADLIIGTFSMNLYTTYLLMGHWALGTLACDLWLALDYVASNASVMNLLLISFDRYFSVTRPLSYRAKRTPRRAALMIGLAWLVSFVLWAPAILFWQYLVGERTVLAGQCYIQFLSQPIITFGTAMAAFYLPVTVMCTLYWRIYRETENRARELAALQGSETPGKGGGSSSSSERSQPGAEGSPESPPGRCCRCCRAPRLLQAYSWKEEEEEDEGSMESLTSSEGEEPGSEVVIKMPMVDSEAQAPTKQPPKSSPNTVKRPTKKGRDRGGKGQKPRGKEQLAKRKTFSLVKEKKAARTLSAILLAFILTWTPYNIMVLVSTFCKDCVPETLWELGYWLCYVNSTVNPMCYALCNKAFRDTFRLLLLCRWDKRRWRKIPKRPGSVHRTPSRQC
Method: In vitro Binding Methods for [3H]-pirenzepine Binding
For in vitro 3H-pirenzepine binding, male Sprague-Dawley (Harlan Sprague Dawley, Indianapolis, Ind.) rats weighing 100-150 gm were sacrificed by decapitation, the brains were quickly removed, and the cerebral cortex was dissected from the brain. Cerebral cortical membranes were prepared by differential centrifugation, washed twice and frozen until used.
The inhibition of binding of 3H-pirenzepine to receptors was determined by adding study drug, 1 nM 3H-pirenzepine (87.0 Ci/mmol, New England Nuclear, Boston, Mass.), and about 100 ug cerebral cortical membranes in 1 ml total volume of 20 mM tris-Cl buffer, pH 7.4, containing 1 mM MnCl2. After incubation for 1 hour at 25° C., the homogenates were filtered through glass filters (Whatman, GF/c) with vacuum, the filters were washed 3 times with 2 ml cold buffer, and placed in scintillation vials containing 10 ml scintillation fluid (Ready Protein +, Beckman, Fullerton, Calif.).
Radioactivity trapped on the filters was determined by liquid, scintillation spectrometry. Nonspecific binding was determined using 1 uM atropine.
as §1

[3] = test system: pylorus ligated rats (gastric acid secretion); format: in vivo, rat (male Sprague-Dawley); conditions: 2 h
Method: Gastric acid inhibition was determined in pylorus ligated rats following the procedure by Shay (Shay, H., Komarov, A. A. and Greenstein, M: Effects of vagotomy in the rat, Arch. Surg. 59: 210-226, 1949). Male Sprague-Dawley rats weighing approximately 200 gm were starved 24 hours prior to using. Water was provided ad libitrim. Under light ether anesthesia the pylorus was ligated and simultaneously the rats were dosed with the compound either i.p. or s.c. and the rats were allowed to recover from anesthetic. Acid was accumulated for 2 hours. At the end of this period, rats were killed. Stomach contents were removed, measured and titrated to a pH endpoint of 7.0.
(§2) The results in columns 6-8 are indicative of 5-HT1A agonist activity.

[4] = test system: serum corticosterone levels; assay: In vivo elevation of serum corticosterone levels; parameters: species or system rat (male Sprague-Dawley); conditions: Rattus norvegicus, sc, 1 h, read-out: Corticosterone MED
Method: (§3) In vivo Methods to Show 5HT1A Activity
(§4) Compounds of this invention were also examined for their in vivo effects on brain 5-HIAA and serum corticosterone levels. Male Sprague-Dawley rats weighing 150-200 g were administered subcutaneously or orally with aqueous solutions of the test compound. One hour after treatment, the rats were decapitated and trunk blood collected. The blood was allowed to clot and then was centrifuged to separate the serum. The concentration of corticosterone in the serum was determined by the spectrofluorometric method of Solem, J. H.; Brinck-Johnsen, T., Scand. J. Clin. Invest, [Suppl. 80], 17, 1 (1965). The whole brains from the decapitated rats were quickly removed, frozen on dry ice, and stored at -15° C. 5-HIAA concentrations were measured by liquid chromatography with electrochemical detection as described by Fuller, R. W.; Snoddy, H. D.; Perry, K. W., Life Sci. 40, 1921 (1987).
as §2

brain 5-HIAA levels = assay: In vivo lowering of brain 5-HIAA levels; parameters: species or system rat (male Sprague-Dawley); conditions: Rattus norvegicus, 1 h, minimum effective dose lowering brain 5-HIAA, one hour after treatment, read-out: 5-HIAA MED
Method: as §3, §4, §2

5HT1A receptors = target: T2, 5HT1A receptors (Rattus norvegicus, UniProt P19327); assay: In vitro binding to 5HT1A receptors (inhibition of 3H-8-OH-DPAT binding, rat cerebral cortex synaptosomal membranes); parameters: species or system rat (male Sprague-Dawley); conditions: for IC50: inhibition of 3H-8-OH-DPAT binding, rat cerebral cortex, read-out: Radioligand binding data (IC50, nM) 5-HT1a
T2 construct: synaptosomal membranes isolated from cerebral cortex; from tissue; host or cells: rat cerebral cortex, crude synaptosomal membranes
T2 sequence (P19327 1-422): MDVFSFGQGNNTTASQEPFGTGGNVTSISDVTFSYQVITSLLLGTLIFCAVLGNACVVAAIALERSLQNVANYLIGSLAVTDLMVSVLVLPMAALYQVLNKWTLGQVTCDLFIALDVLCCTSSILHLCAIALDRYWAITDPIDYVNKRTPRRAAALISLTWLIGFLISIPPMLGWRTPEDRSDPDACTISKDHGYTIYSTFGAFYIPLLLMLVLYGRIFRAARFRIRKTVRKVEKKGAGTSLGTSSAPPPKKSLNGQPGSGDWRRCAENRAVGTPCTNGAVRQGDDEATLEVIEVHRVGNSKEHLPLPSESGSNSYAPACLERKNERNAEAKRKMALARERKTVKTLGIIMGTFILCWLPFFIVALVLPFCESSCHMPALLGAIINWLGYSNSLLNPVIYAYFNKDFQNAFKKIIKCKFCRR
Excerpt: Sites specifically labeled by tritiated 8-hydroxy-2-dipropylamino-1,2,3,4-tetrahydronaphthalene (^3 H-8-OH-DPAT) have been identified as 5-HT1A receptors. This general procedure is set forth in Wong et al., J. Neural Transm. 71: 207-218 (1988).
In vitro Binding Methods to 5HT1A Receptors
Male Sprague-Dawley rats (110-150 g) from Harlan Industries (Cumberland, Ind.) were fed Purina Chow ad libitum for at least 3 days before being used in the studies. Rats were killed by decapitation. The brains were rapidly removed, and the cerebral cortices were dissected out at 4° C.
Brain tissues were homogenized in 0.32M sucrose. After centrifugation at 1000× g for 10 min. and then at 17000× g for 20 min., a crude synaptosomal fraction was sedimented. The pellet was suspended in 100 vol. of 50 mM Tris-HCl, pH 7.4, incubated at 37° C. for 10 min., and centrifuged at 50000× g for 10 min. The process was repeated and the final pellet was suspended in ice-chilled 50 mM Tris-HCl, pH 7.4.
Binding of ^3 H-8-OH-DPAT was performed according to the previously described method [Wong et al., J. Neural Transm. 64: 251-269 (1985)]. Briefly, synaptosomal membranes isolated from cerebral cortex were incubated at 37° C. for 10 min. in 2 ml of 50 mM Tris-HCl, pH 7.4; […]; 0.6 mM ascorbic acid; 5 mM CaCl2; 2 nM 3H-8-OH-DPATand 0.1 to 1000 nm of the compound of interest. Binding was terminated by filtering samples under reduced pressure through glass fiber (GFB) filters. The filters were washed twice with 5 ml of ice cold buffer and placed in scintillation vials with 10 ml of PCS (Amersham/Searle) scintillation fluid. Radioactivity was measured with a liquid scintillation spectrometer. Unlabeled 8-OH-DPAT at […] was also included in separate samples to establish non-specific binding. Specific binding of ^3 H-8-OH-DPAT is defined as the difference of radioactivity bound in the absence and in the presence of 10 μM unlabeled 8-OH-DPAT.
as §2

gastric secretion = conditions: intravenous infusion in humans; cited from earlier work

Structure (SMILES) | pIC50 [1] | pIC50 [2] | Gastric Acid Inhibition % [3] [%] | minimal effective dose [4] [mg/kg] | minimal effective dose (brain 5-HIAA levels; po) [mg/kg] | minimal effective dose (brain 5-HIAA levels; sc) [mg/kg] | IC50 (5HT1A receptors) [nM] | effect on production of mucus (gastric secretion) | effect on volume and acidity of spontaneous and histamine-induced gastric secretion (gastric secretion) | IC50 [2] [nM] | minimal effective dose ([4]; minimum effective dose elevating serum corticosterone, one hour after treatment) [mg/kg] | pIC50 (5HT1A receptors)
CCCN(CCC)C1CCc2cccc(O)c2C1 (stereo not drawn) [8-OH DPAT, 8-hydroxy-2-dipropylamino-1,2,3,4-tetrahydronaphthalene, reference compound] | 4.53 | 5.71 | 72.4 | – | – | – | – | – | – | – | – | –
CCCN(CCC)C1CCc2cccc(-c3ccno3)c2C1.O=C(O)/C=C\C(=O)O (stereo not drawn) [Example 1, 2-(Di-n-propylamino)-8-(isoxazol-5-yl)-1,2,3,4-tetrahydronaphthalene maleate] | 5.09 | – | 69.6 | 0.3 | 3 | 0.1 | 0.44 | – | – | – | – | –
CCCN(CCC)C1CCc2cccc(-c3cc(Br)no3)c2C1.O=C(O)/C=C\C(=O)O (stereo not drawn) [Example 2, 2-(Di-n-propylamino)-8-(3-bromoisoxazol-5-yl)-1,2,3,4-tetrahydronaphthalene maleate] | 5.34 | 6.66 | – | > 1 | – | > 1 | 2.5 | – | – | – | – | –
CCCN(CCC)C1CCc2cccc(-c3oncc3C)c2C1.O=C(O)/C=C\C(=O)O (stereo not drawn) [Example 3, 2-(Di-n-propylamino)-8-(4-methylisoxazol-5-yl)-1,2,3,4-tetrahydronaphthalene maleate] | – | 6.72 | 95.7 | 1 | > 10 | 0.3 | 1.9 | – | – | – | – | –
CCCN(CCC)C1CCc2cccc(-c3cc(C)no3)c2C1.O=C(O)/C=C\C(=O)O (stereo not drawn) [Example 5, 2-(Di-n-propylamino)-8-(3-methylisoxazol-5-yl)-1,2,3,4-tetrahydronaphthalene maleate] | – | 6.97 | 95.8 | > 1 | – | 1 | 1.3 | – | – | – | – | –
NCCc1c[nH]c2ccc(O)cc12 [Example 5-HT, 5-hydroxytryptamine] | – | – | – | – | – | – | – | increasing the production of mucus | inhibits the volume and acidity of both spontaneous and histamine-induced gastric secretion | – | – | –
N[C@@H](Cc1c[nH]c2ccc(O)cc12)C(=O)O [Example 5-HTP, 5-hydroxytryptophane] | – | – | – | – | – | – | – | increasing the production of mucus | inhibits the volume and acidity of both spontaneous and histamine-induced gastric secretion | – | – | –
CCCN(CCC)C1CCc2cccc(-c3cc(-c4ccccc4)no3)c2C1 (stereo not drawn) [Example 6, 2-(Di-n-propylamino)-8-(3-phenylisoxazol-5-yl)-1,2,3,4-tetrahydronaphthalene hydrobromide] | – | – | – | – | – | – | 72 | – | – | 750 | – | –
CCCN(CCC)C1CCc2cccc(-c3cc(SC)no3)c2C1 (stereo not drawn) [Example 7, 2-(Di-n-propylamino)-8-(3-methylthioisoxazol-5-yl)-1,2,3,4-tetrahydronaphthalene maleate] | – | – | 65.4 | – | – | > 1 | – | – | – | 173 | > 1 | 8.92
Br.CCCN(CCC)C1CCc2cccc(-c3oncc3OC)c2C1 (stereo not drawn) [Example 8, 2-(Di-n-propylamino)-8-(4-methoxyisoxazol-5-yl)-1,2,3,4-tetrahydronaphthalene hydrobromide] | – | 6.71 | 46.8 | > 1 | – | 1 | 1.7 | – | – | – | – | –
CCCN(CCC)[C@H]1CCc2cccc(-c3ccno3)c2C1 [Example 9, S-(-)-8-(isoxazol-5-yl)-2-dipropylamino-1,2,3,4-tetrahydronaphthalene maleate] | 5.60 | – | 96.8 | – | 3 | – | – | – | – | 180 | – | 9.70
CCCN(CCC)[C@@H]1CCc2cccc(-c3ccno3)c2C1.O=C(O)/C=C\C(=O)O [Example 10, R-(+)-8-(isoxazol-5-yl)-2-dipropylamino-1,2,3,4-tetrahydronaphthalene maleate] | 5.04 | 6.82 | 47.1 | – | 10 | – | 1.4 | – | – | – | – | –
